The text below walks through data of patent US11021493B2, “1,4-thiazine dioxide and 1,2,4-thiadiazine dioxide derivatives as beta-secretase inhibitors and methods of use” (AMGEN INC., priority 2016, dated 2021).

Usually IC50 stands for the concentration needed to halve the response being measured.

Each structure is given as a SMILES string.

One series concerns the target β-secretase (Rattus norvegicus (Rat), UniProt P56819). Nature of the series: In vivo inhibition of β-secretase: Aβ reduction in rat CSF and brain.
The next series addresses human recombinant BACE2 (Homo sapiens (Human), UniProt Q9Y5Z0). Nature of the series: In vitro enzymatic BACE2 FRET assay. To be noted: read-out: BACE2 Enzyme IC50. It counts as biochemical.
For series [1], the target named is T1, BACE1 (Homo sapiens (Human), UniProt P56817). Nature of the series: In vitro BACE1 cell-based assay (Aβ40 in conditioned medium of cells stably expressing APP, HTRF). To be noted: Aβ40 in conditioned media after 24 h incubation. In general terms: Time-resolved FRET reads energy transfer from a long-lived donor to a nearby acceptor.
Target sequence in this assay (P56817 46-501, species assumed): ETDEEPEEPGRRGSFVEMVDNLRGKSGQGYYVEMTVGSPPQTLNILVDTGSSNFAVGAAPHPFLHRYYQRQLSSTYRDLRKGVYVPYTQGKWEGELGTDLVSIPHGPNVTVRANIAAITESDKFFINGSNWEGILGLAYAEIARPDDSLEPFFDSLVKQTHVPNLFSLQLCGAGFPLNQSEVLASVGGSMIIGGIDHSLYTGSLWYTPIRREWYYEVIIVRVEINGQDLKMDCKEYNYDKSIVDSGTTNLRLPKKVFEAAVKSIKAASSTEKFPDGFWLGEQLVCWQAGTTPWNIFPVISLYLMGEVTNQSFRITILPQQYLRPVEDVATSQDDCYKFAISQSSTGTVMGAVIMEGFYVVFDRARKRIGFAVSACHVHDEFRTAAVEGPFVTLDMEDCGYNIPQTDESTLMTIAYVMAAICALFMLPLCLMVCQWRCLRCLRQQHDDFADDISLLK
The target of series [2] is T1, BACE1. Nature of the series: In vitro enzymatic BACE1 FRET assay. The series is classed as biochemical. To be noted: read-out: BACE1 Enzyme IC50.
Target sequence in this assay (P56817 46-501): as the sequence (P56817 46-501, species assumed) above
In a further series the target is Cathepsin D (CatD) (Homo sapiens (Human), UniProt P07339). Nature of the series: In vitro enzymatic Cathepsin D (CatD) FRET assay. As to conditions: read-out: Cat D Enzyme IC50. The series is classed as biochemical.
Sequence of Cathepsin D (CatD) (P07339 65-412, species assumed): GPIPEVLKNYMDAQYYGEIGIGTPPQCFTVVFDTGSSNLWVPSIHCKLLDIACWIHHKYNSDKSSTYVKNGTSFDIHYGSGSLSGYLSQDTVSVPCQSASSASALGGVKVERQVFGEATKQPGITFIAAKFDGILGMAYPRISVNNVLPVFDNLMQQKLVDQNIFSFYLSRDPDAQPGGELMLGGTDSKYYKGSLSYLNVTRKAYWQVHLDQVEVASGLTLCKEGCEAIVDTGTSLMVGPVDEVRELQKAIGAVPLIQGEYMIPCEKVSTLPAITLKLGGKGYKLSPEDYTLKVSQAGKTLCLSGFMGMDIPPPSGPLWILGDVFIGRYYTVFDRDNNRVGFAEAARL
The next series has as its system BACE. As to conditions: nonhuman primates; cited from earlier work.
The conditions of series [3]: cited from earlier work.
The conditions of series [4]: higher compound dose given for three months; cited from earlier work.

Sequence of β-secretase (P56819 46-501): as the sequence (P56817 46-501, species assumed) above, with G82S, V162I, L165I, S180T, V182A, I340V, L393A, Q443H counted along it
Sequence of human recombinant BACE2 (Q9Y5Z0 63-518): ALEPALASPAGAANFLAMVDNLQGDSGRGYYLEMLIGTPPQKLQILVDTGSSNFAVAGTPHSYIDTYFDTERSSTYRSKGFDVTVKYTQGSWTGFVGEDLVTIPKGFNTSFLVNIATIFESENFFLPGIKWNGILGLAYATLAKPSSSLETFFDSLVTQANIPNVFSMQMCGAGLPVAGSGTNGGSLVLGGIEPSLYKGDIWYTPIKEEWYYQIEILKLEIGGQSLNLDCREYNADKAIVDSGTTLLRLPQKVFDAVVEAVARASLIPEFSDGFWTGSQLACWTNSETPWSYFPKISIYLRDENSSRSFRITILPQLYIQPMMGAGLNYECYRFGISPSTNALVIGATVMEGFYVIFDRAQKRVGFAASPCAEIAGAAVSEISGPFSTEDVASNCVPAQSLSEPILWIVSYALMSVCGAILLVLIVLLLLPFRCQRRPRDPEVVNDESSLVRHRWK
Method for β-secretase: In Vivo Inhibition of β-Secretase
Animals to be used in this experiment can be wild type, transgenic, or gene knockout animals.
A separate group of animals receive 2% hydroxypropyl methylcellulose, 1% Tween80 alone, containing no test compound, and serve as a vehicle-control group. At the end of the test period, animals are sacrificed and brain tissues, plasma or cerebrospinal fluid are collected. […] Homogenates are centrifuged at 355,000 g, 4° C. for 30 minutes. CSF or brain supernatants are then analyzed for the presence of Aβ by specific sandwich ELISA assays based on ECL (Electrochemiluminescence) technology. For example, rat Aβ40 is measured using biotinylated-4G8 (Signet) as a capture antibody and Fab40 (an in-house antibody specific to the C-terminal of Aβ40) as a detection antibody.

With `C#C[C@H](C)Oc1cnc(/C(F)=C/c2ccc(F)c([C@]3(C)CS(=O)(=O)C(C)(C)C(N)=N3)c2)cn1` [Example 160, (R)-5-amino-3-(5-((Z)-2-(5-((S)-but-3-yn-2-yloxy)pyrazin-2-yl)-2-fluorovinyl)-2-fluorophenyl)-3,6,6-trimethyl-3,6-dihydro-2H-1,4-thiazine 1,1-dioxide], on β-secretase, the “% Aβ reduction in rat CSF at 10 mpk” value worked out at 52%. Moreover, the “% Aβ reduction in rat brain at 10 mpk” value at β-secretase came out at 34%. The IC50 at human recombinant BACE2 came out at 0.12 µM; at BACE1 [1] it was 0.005 µM; at BACE1 [2], 0.001 µM; on Cathepsin D (CatD) it was 207 µM.

On to `CN1C(N)=N[C@](C)(c2cc(/C=C(\F)c3cnc(OCc4ncco4)cn3)cc(F)c2F)CS1(=O)=O` [Example 166, (R,Z)-3-amino-5-(2,3-difluoro-5-(2-fluoro-2-(5-(oxazol-2-ylmethoxy)pyrazin-2-yl)vinyl)phenyl)-2,5-dimethyl-5,6-dihydro-2H-1,2,4-thiadiazine 1,1-dioxide], for which, at β-secretase, the “% Aβ reduction in rat CSF at 10 mpk” value is listed as 45%. Besides, the “% Aβ reduction in rat brain at 10 mpk” value on β-secretase stood at 26%. For the same compound, the IC50 was 0.09 µM on human recombinant BACE2, 0.004 µM on BACE1 [1], 0.004 µM on BACE1 [2] and 40.9 µM at Cathepsin D (CatD).

Regarding `C#C[C@H](C)Oc1cnc(/C(F)=C/c2ccc(F)c([C@@]3(C)N=C(N)N(C)S(=O)(=O)C3(C)C)c2)cn1` [Example 186, (R)-3-amino-5-(5-((Z)-2-(5-((S)-but-3-yn-2-yloxy)pyrazin-2-yl)-2-fluorovinyl)-2-fluorophenyl)-2,5,6,6-tetramethyl-5,6-dihydro-2H-1,2,4-thiadiazine 1,1-dioxide], the “% Aβ reduction in rat CSF at 10 mpk” value on β-secretase is on record as 19%. In addition, the “% Aβ reduction in rat brain at 10 mpk” value on β-secretase came to 43%. The IC50 on human recombinant BACE2 was found to be 0.451 µM; at BACE1 [1], 0.024 µM; on BACE1 [2], 0.005 µM; on Cathepsin D (CatD), 375 µM.

On to `C#CCOc1cnc(/C(F)=C/c2cc(F)c(F)c([C@]3(C)CS(=O)(=O)C(C)(C)C(N)=N3)c2)cn1` [Example 204, (R,Z)-5-amino-3-(2,3-difluoro-5-(2-fluoro-2-(5-(prop-2-yn-1-yloxy)pyrazin-2-yl)vinyl)phenyl)-3,6,6-trimethyl-3,6-dihydro-2H-1,4-thiazine 1,1-dioxide], for which the “% Aβ reduction in rat CSF at 10 mpk” value on β-secretase amounted to 65%. In addition, the “% Aβ reduction in rat brain at 10 mpk” value on β-secretase was 61%. Further, the IC50 on human recombinant BACE2 came out at 0.179 µM; against BACE1 [1] it was 0.009 µM; at BACE1 [2], 0.005 µM; at Cathepsin D (CatD) it was 42.7 µM.

Turning to `C#CCOc1cnc(/C(F)=C/c2cnc(F)c([C@]3(C)CS(=O)(=O)C(C)(C)C(N)=N3)c2)cn1` [Example 205, (R,Z)-5-amino-3-(2-fluoro-5-(2-fluoro-2-(5-(prop-2-yn-1-yloxy)pyrazin-2-yl)vinyl)pyridin-3-yl)-3,6,6-trimethyl-3,6-dihydro-2H-1,4-thiazine 1,1-dioxide], on β-secretase, the “% Aβ reduction in rat CSF at 10 mpk” value amounted to 68%. The “% Aβ reduction in rat brain at 10 mpk” value at β-secretase came out at 65%. The IC50 on human recombinant BACE2 amounted to 0.129 µM; at BACE1 [1], 0.007 µM; on BACE1 [2], 0.005 µM; on Cathepsin D (CatD), 244 µM.

Regarding `CC1(C)C(N)=N[C@@]2(c3ccc(/C=C(\F)c4ccc(C#N)cn4)cc3F)COC[C@H]2S1(=O)=O` [Example 261, 6-((Z)-2-(4-((4aS,7aS)-3-amino-2,2-dimethyl-1,1-dioxido-4a,5,7,7a-tetrahydro-2H-furo[3,4-b][1,4]thiazin-4a-yl)-3-fluorophenyl)-1-fluorovinyl)nicotinonitrile], the “% Aβ reduction in rat CSF at 10 mpk” value at β-secretase is on record as 69%. Moreover, on β-secretase, the “% Aβ reduction in rat brain at 10 mpk” value came to 60%. Moreover, the IC50 at human recombinant BACE2 worked out at 0.012 µM; on BACE1 [1] it was 0.034 µM; on BACE1 [2] it was 0.002 µM; at Cathepsin D (CatD), 178 µM.

As for `C[C@H]1OC[C@]2(c3cc(NC(=O)c4cnc(C(F)F)cn4)ccc3F)N=C(N)SC[C@H]12` [Example E2609], in the series on BACE, the “Aβ peptide levels in the CSF and plasma” value is “significant reduction”. The clinical safety entry in series [3] (repeated doses up to 200 mg, phase I clinical trial) is listed as “did not show clinical significant safety concerns”.

In the case of `C[C@@]1(c2cc(-c3cncnc3)c(F)cc2F)CCSC(N)=N1` [LY 2811376], the eye toxicity result in series [4] is given as “damaged the pigment epithelium of the rat's eye”.

In the case of `CN1C(=N)N[C@](C)(c2cc(NC(=O)c3ccc(F)cn3)ccc2F)CS1(=O)=O` [MK-8931], the safety profile entry in series [3] (phase I clinical trials) is recorded as “no immediately noticeable side effects”.
